Publication PMC4818757, “Small molecule inhibitors of the Dishevelled‐CXXC5 interaction are new drug candidates for bone anabolic osteoporosis therapy” (EMBO Molecular Medicine, 2016)

Key:
[1] = test system: ex vivo‐cultured calvaria; assay: Ex vivo calvaria culture, thickness; type: cell-based, mouse; details: 7 days
Method: Figure 1 Identification and characterization of small molecules competing Dvl–CXXC5 binding in vitro • A A scheme for in vitro screening method of small molecules competing Dvl–CXXC5 binding. Briefly, purified Dvl PDZ domain was attached to the polystyrene surface of each well of 96‐well plates. Then, PolyR‐DBM (polyarginine‐conjugated Dvl binding motif tagged with FITC) (Kim et al, 2015) was added to each well and allowed to bind to the Dvl PDZ domain; 10 μM small‐molecule compound was added to each well, and the compounds competing with Dvl PZD‐PolyR‐DBM binding were measured by a microplate reader to screen the compounds reducing fluorescence signal. • B Screening results of compounds competing Dvl–CXXC5 interaction. […] The relative numbers of β‐catenin‐positive nuclei were counted (D). […] The calvaria thicknesses were measured from the images using Image Pro software (F). […] (error bars), and significance was assessed using unpaired Student's t‐test.
Figure 3 Effect of KY‐02061 on Wnt/β‐catenin pathway, osteoblast differentiation, and ex vivo‐cultured calvaria growth • A MC3T3E1 cells were transfected with pTOPFLASH together with pCMV‐β‐gal. […] The luciferase activities of whole‐cell lysates were measured and normalized with β‐galactosidase activities. […] The calvaria thicknesses were measured from the stained sections using Image Pro software (E). […]

[2] = test system: Wnt/β‐catenin pathway; assay: TOPflash reporter assay; type: cell-based, murine; details: MC3T3E1 cells, 2 days
Method: Figure 3 Effect of KY‐02061 on Wnt/β‐catenin pathway, osteoblast differentiation, and ex vivo‐cultured calvaria growth • A MC3T3E1 cells were transfected with pTOPFLASH together with pCMV‐β‐gal. After 24 h, the cells were treated with DMSO, KY‐02061 in DMSO, or 5 μM PolyR‐DBM for 2 days. The luciferase activities of whole‐cell lysates were measured and normalized with β‐galactosidase activities. (n = 3) • B Primary calvaria cells were isolated from the calvariae of 4‐day‐old mice (Manton et al, 2007) and treated with DMSO or KY‐02061 in DMSO for 4 days. ALP activity levels were visualized by ALP staining. • C Primary calvaria cells were treated with DMSO or 5 μM KY‐02061 in DMSO for 14 days. […] The calvaria thicknesses were measured from the stained sections using Image Pro software (E). […] (error bars), and significance was assessed using unpaired Student's t‐test.
Figure 5 Effects of KY‐02327 on Wnt/β‐catenin pathway and osteoblast differentiation in osteoblasts • A MC3T3E1 cells were transfected with pTOPFLASH together with pCMV‐β‐gal. […] The luciferase activities of whole‐cell lysates were measured and normalized with β‐galactosidase activities. (n = 3) • B, C MC3T3E1 cells were treated with indicated concentrations of KY‐02327 for 2 days. β‐Catenin and α‐tubulin were detected by immunoblot (B) or immunofluorescence (C) analyses. […] The mRNA level of osteocalcin (OCN) was measured by qRT–PCR. […]

Row | Structure (SMILES) | increase of thickness of ex vivo‐cultured calvaria compared with DMSO‐treated control ([1]; 2 μM) [%] | thickness of ex vivo‐cultured calvaria, dose dependence [1] | activation of the Wnt/β‐catenin pathway (TOPflash luciferase) [2]
1 | CCOC(=O)Cn1c(C(=O)OCC)cc2cc(OS(=O)(=O)c3ccc(C)cc3)ccc21 [KY‐02061] | 51.2 | increased | increased
2 | CCOC(=O)c1cc2cc(O)ccc2n1CC(=O)NCCN1CCCCC1 [KY‐02327] | – | – | dose‐dependent effect
